Here are results for five compounds from PubChem BioAssay (NCI).

Test systems include RXF 393 renal; SNB-19 CNS; EKVX NSCLC; SW-620 colon; PC-3 prostate; MCF7 breast; MDA-MB-231 breast; HCT-116 colon; MOLT-4 leukemia; SNB-75 CNS.
Holding throughout (experiment): NCI tumour cell line growth inhibition, 48 h

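Cells were grown in 96-well plates and exposed to each compound for 48 hours at five concentrations; endpoints were interpolated linearly between bracketing concentrations, or set to the highest concentration if not reached. TGI marks complete inhibition of growth.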

For the compound `CCCCC/C(C=O)=C\c1ccccc1`, the TGI with RXF 393 renal, with SNB-19 CNS, with EKVX NSCLC, with SW-620 colon, in the experiment with PC-3 prostate and with MCF7 breast was above 100 µM throughout. Moreover, the TGI with MDA-MB-231 breast, with HCT-116 colon, in the experiment on MOLT-4 leukemia and in the experiment on SNB-75 CNS was above 100 µM throughout.
As to `CC/C(Cl)=N\OC(=O)Nc1ccc(F)c([N+](=O)[O-])c1`, the TGI in the experiment on RXF 393 renal is 30.4 µM; with SNB-19 CNS, 33.7 µM; with EKVX NSCLC, 35.6 µM; in the experiment with SW-620 colon it was 33.6 µM; in the experiment with PC-3 prostate, 32.4 µM; in the experiment with MCF7 breast it was above 37.8 µM. For the same compound, the TGI in the experiment on MDA-MB-231 breast is 34.9 µM; in the experiment with HCT-116 colon, 30.6 µM; in the experiment on MOLT-4 leukemia, above 36.3 µM; in the experiment with SNB-75 CNS it was 38.9 µM.
As to `Cc1cn2c(C)csc2c1P(=O)(OC(C)C)OC(C)C`, the TGI in the experiment on RXF 393 renal, with SNB-19 CNS, in the experiment with EKVX NSCLC, with SW-620 colon, with PC-3 prostate and with MCF7 breast was above 100 µM in each case. For the same compound, the TGI in the experiment with MDA-MB-231 breast, in the experiment on HCT-116 colon, in the experiment with MOLT-4 leukemia and with SNB-75 CNS was above 100 µM in each case.
Turning to `Cn1ccnc1Sc1ccc(C=Nc2ccc3nc(SCC(=O)NC4CCCCC4)sc3c2)cc1[N+](=O)[O-]`, the TGI was 23.4 µM with RXF 393 renal; 55.9 µM in the experiment with SNB-19 CNS; above 100 µM in the experiment with EKVX NSCLC; above 100 µM with SW-620 colon; above 100 µM with PC-3 prostate; above 100 µM in the experiment on MCF7 breast. The TGI in the experiment with MDA-MB-231 breast was 99.4 µM; in the experiment on HCT-116 colon it was above 100 µM; in the experiment on MOLT-4 leukemia it was above 100 µM; with SNB-75 CNS, 8.84 µM.
In the case of `CC1=C[C@@H](C)C[C@]2(C)CC[C@H](O2)[C@]23CC[C@](C(=O)O)(C[C@H](O2)[C@@H]2O[C@@](C)(CC2=O)[C@@H](O)[C@H]2CC[C@@]4(CCC[C@@H](O4)[C@H](C)C(=O)O[C@H]4C[C@H]([C@]5(O)OCC[C@H](C)[C@@H]5O)O[C@H]4C=C1)O2)O3`, the TGI in the experiment on RXF 393 renal, in the experiment on SNB-19 CNS, with EKVX NSCLC, in the experiment on SW-620 colon, in the experiment with PC-3 prostate and in the experiment on MCF7 breast was above 10 µM throughout. Moreover, the TGI in the experiment on MDA-MB-231 breast is above 10 µM; in the experiment with HCT-116 colon, above 10 µM; in the experiment on MOLT-4 leukemia it was above 10 µM; in the experiment on SNB-75 CNS, above 6.85 µM.
